The source of these data is PMC4101055 (Antiviral research, 2014).

“Also recorded” adds a separate entry of the source.

For data set [1], the target named is recombinant genotype D HBV RNaseH (Hepatitis B virus genotype D subtype ayw, UniProt P03156). Nature of the data set: Oligonucleotide-directed RNA cleavage assay, HBV genotype D RNaseH. Type of data set: biochemical. As to conditions: for activity against the HBV RNaseH (in words): genotype D and C enzymes, up to 60 µM.
Data set [2] concerns HepDES19 cells. The data set can be described thus: MTT cytotoxicity assay. The data set is classed as cell-based, human. As to conditions: read-out: Cytotoxicity CC50, MTT, 3 days treatment. In general terms: Tetrazolium dyes change colour on reduction, which living cells bring about.
The target in data set [3] is genotype C HBV RNaseH (Hepatitis B virus, UniProt P12933). The data set can be described thus: Oligonucleotide-directed RNA cleavage assay, HBV genotype C RNaseH. The data set is classed as biochemical. The settings on record: read-out: Genotype C IC50; average ± SD, three or four independent assays.
Sequence of genotype C HBV RNaseH (P12933 682-843): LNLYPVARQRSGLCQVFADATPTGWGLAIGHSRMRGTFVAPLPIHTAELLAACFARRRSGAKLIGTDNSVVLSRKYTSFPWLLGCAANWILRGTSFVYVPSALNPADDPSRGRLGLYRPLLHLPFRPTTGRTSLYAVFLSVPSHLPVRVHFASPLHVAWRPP
For data set [4], the target named is E. coli RNaseH (Escherichia coli, UniProt P0A7Y4). Nature of the data set: Oligonucleotide-directed cleavage assay with E. coli RNaseH. The data set is classed as biochemical. As to conditions: identical conditions to the HBV RNaseH assay.
Sequence of E. coli RNaseH (P0A7Y4 whole entry): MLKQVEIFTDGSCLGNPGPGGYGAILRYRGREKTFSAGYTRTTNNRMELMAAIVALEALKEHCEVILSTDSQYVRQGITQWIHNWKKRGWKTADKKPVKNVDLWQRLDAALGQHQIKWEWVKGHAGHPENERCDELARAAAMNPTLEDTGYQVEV
Data set [5] deals with HBV genotype D replication in HepDES19 cells. Nature of the data set: HBV replication assay in HepDES19 cells. The data set is classed as cell-based, Hepatitis B virus. The settings on record: same samples as the EC50 assay.
The test system of data set [6] is HIV RNaseH. The settings on record: read-out: IC50 against the HIV RNaseH; ref Billamboz et al., 2011b; cited from earlier work.
The subject of data set [7] is HBV replication. As to conditions: read-out: EC50 against HBV replication; ref Hu et al., 2013; cited from earlier work.

Sequence of recombinant genotype D HBV RNaseH (P03156 671-832): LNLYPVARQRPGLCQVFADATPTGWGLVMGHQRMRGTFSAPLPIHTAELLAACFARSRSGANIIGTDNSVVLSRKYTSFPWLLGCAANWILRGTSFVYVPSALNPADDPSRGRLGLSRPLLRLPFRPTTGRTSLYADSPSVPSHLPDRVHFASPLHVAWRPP

As a reminder, the IC50 is the concentration needed to halve the response being measured. By CC50 is commonly meant the concentration giving 50% cytotoxicity. Take `O=C1Cc2ccccc2C(=O)N1O` [Compound 1, 2-hydroxyisoquinoline-1,3(2H,4H)-dione]: the IC50 in data set [1] was 28.1 ± 9.7 µM; in data set [3], 30.4 ± 12.9 µM. In data set [2], the cytotoxic concentration (CC50) came to 74.7 ± 24 µM. Further, the “Effect on E. coli RNaseH activity” value in data set [4] was “not affected; also recorded: inactive”. For the same compound, the “Accumulation of minus-polarity HBV DNA strand” value in data set [5] was “not suppressed”.
In the case of `O=C1CCC(=O)N1O` [Compound 139], the “activity against the HBV RNaseH (in words)” value (from here on “activity … (in words)”) in data set [1] is “inactivity”.
As to `COC(=O)C1C(=O)N(O)C(=O)c2ccccc21` (stereo not shown) [Compound 81, 2-hydroxy-4-methoxycarbonylisoquinoline-1,3(2H,4H)-dione], in data set [1], the “activity … (in words)” value is reported as “negligible activity”. Moreover, the concentration for half-maximal inhibition (IC50) in data set [6] was 0.061 µM.
The term EC50 denotes the concentration needed to bring the measured effect to its halfway point. `CC(C)c1ccc(O)c(=O)c(O)c1` [Compound 46, β-thujaplicinol]: in data set [7], the EC50 is about 5 µM.
On to `O=C1c2ccccc2C(=O)N1O` [Compound 138], for which, in data set [1], the “activity … (in words)” value is reported as “inactivity”.
